Earlier results in patent US11185540B2, “Extended release compositions of opioid antagonists and phosphodiesterase 5 inhibitors” (Pardon My Scotch, LLC, priority 2017, dated 2021).

Assays:
[1] = in vivo
PDE9 = PDE9 (Homo sapiens, UniProt O76083)
PDE5 = PDE5 (Homo sapiens, UniProt O76074)

Sequence of PDE9 (O76083 whole entry): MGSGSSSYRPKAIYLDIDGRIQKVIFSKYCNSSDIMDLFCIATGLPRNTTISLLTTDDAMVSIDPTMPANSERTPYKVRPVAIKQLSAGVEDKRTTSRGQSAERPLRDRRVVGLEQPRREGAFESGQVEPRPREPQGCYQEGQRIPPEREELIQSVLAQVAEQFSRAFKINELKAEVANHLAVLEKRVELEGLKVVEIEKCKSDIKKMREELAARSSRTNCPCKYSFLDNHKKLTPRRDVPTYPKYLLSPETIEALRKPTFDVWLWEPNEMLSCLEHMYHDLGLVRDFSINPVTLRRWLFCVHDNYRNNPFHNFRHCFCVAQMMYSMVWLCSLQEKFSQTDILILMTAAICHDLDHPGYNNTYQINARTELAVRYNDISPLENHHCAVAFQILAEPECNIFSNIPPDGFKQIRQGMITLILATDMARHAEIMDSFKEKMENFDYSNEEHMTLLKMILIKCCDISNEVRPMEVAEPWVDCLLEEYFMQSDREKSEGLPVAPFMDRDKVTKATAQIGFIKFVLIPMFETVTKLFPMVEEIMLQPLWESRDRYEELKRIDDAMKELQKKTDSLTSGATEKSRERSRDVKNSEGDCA

SMILES | Plasma half-life [1] [h] | Inhibition of PDE6 (PDE6) | Inhibition of PDE9 (PDE9) | Inhibition of PDE5 (PDE5)
CCCc1nn(C)c2c(=O)[nH]c(-c3cc(S(=O)(=O)N4CCN(C)CC4)ccc3OCC)nc12 [sildenafil] | 5 to 7 | inhibit | inhibit | 
CN1CC(=O)N2[C@H](c3ccc4c(c3)OCO4)c3[nH]c4ccccc4c3C[C@@H]2C1=O [tadalafil, pyrazino[1′,2′:1,6]pyrido[3,4-b]indole-1,4-dione, 6-(1,3-benzodioxol-5-yl)-2,3,6,7,12,12a-hexahydro-2-methyl-, (6R,12aR)-] |  |  |  | inhibit
CCCc1nc(C)c2c(=O)[nH]c(-c3cc(S(=O)(=O)N4CCN(CC)CC4)ccc3OCC)nn12 [vardenafil] | 5 to 7 |  |  | 
